Laboratory results taken from US6914045B2, “Glycopeptide antibiotics” (Wyeth Holdings Corporation, priority 2001, dated 2005).
Values after ≈ are worked out from the molar mass of the structure shown.

Assays:
[1] = anatomic pathology (histopathology of heart and kidney) in mice; format: in vivo; conditions: CD-1 mice, 20 mg/kg intravenously daily for 9 days, necropsy day 10, microscopic histopathology
Method: Samples of tissues from necropsied mice were formalin-fixed, paraffin-embedded, sectioned, stained with hematoxylin and eosin, and examined microscopically. Histopathologic findings were recorded. These findings were subjectively graded on a scale corresponding to slight, mild, moderate, marked and severe as compared to untreated controls.

[2] = test system: Escherichia coli; experiment: in vitro antibacterial evaluation, MIC by broth dilution; format: cell-based; conditions: 18 hours at 35° C.
Method in brief: (§1)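 Read-out: the lowest concentration at which the test strain fails to grow. Serial dilutions (64-0.06 μg/mL) in Muller-Hinton II […], 5×10^5 CFU/mL inoculum, NCCLS M7-A2 procedure.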

[3] = test system: Streptococcus sp.; experiment: as above; format: cell-based; conditions: broth dilution, 18 hours at 35° C.
Method in brief: as §1

[4] = test system: Staphylococcus sp.; experiment: as above; format: cell-based; conditions: broth dilution, 18 hours at 35° C.
Method in brief: as §1

[5] = test system: Enterococcus sp.; experiment: as above; format: cell-based; conditions: broth dilution, 18 hours at 35° C.
Method in brief: as §1

[6] = test system: Staphylococcus aureus-SMITH (GC 4543); experiment: acute lethal infection in mice; format: in vivo; conditions: acute lethal infection, female CD-1 mice, intraperitoneal challenge, intravenous 30 min. after infection, 7 day survival
Method in brief: (§2)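 Protocol: bacteria suspended in trypticase soy broth or hog gastric mucin injected ip into female CD-1 mice at a level killing untreated controls in 24-48 hr; compound given iv in saline or 5% dextrose 30 min post-challenge; five mice per dose; ED50 derived from pooled 7 day survival of three runs.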

[7] = test system: Streptococcus pneumoniae (GC 1894); experiment: acute lethal infection in mice; format: in vivo; conditions: female CD-1 mice, intraperitoneal challenge, intravenous 30 min. after infection, 7 day survival
Method in brief: as §2

[8] = clinical pathology (serum clinical chemistry) in mice; format: in vivo; conditions: CD-1 mice, 20 mg/kg intravenously daily for 9 days, sera day 10
Method: 20-day-old CD-1 mice were divided into a vehicle control group (5 mice) and a treatment group (5 mice). Samples of glycopeptide antibiotics were administered at 20 mg/kg intravenously daily for 9 days.

Structure (SMILES): CC(c1ccccc1)C1NC(=O)CNC(=O)C(CO)NC(=O)C(C(O)C2CNC(=N)N2C2OC(CO)C(O)C(O)C2O)NC(=O)C(C(O)C2CNC(=N)N2)NC(=O)C(Cc2ccc(OC3OC(CO)C(OC4OC5COC(c6ccccc6)OC5C(O)C4O)C(O)C3O)cc2)NC1=O (centres unmarked) [Example 104, Cyclo[glycyl-3-methylphenylalanyl-O-[4-O-(4,6-O-benzylidenehexopyranosyl)hexopyranosyl]-tyrosyl-3-(2-iminoimidazolidin-4-yl)seryl-3-(3-hexopyranosyl-2-iminoimidazolidin-4-yl)-serylseryl]]
- Anatomical Pathology (Day 10), Heart [1]: +++
- Anatomical Pathology (Day 10), Kidney [1]: +++
- MIC Escherichia coli (ATCC 25922) ([2]; strain ATCC 25922): 32 to 64 µg/mL
- MIC Escherichia coli (GC 4559) ([2]; strain GC 4559): 16 to 32 µg/mL
- MIC Escherichia coli (GC 4560) ([2]; strain GC 4560): 0.5 to 1 µg/mL
- MIC Streptococcus agalactiae (GC 4564) ([3]; Streptococcus agalactiae (GC 4564)): <0.12 to 0.25 µg/mL
- MIC Streptococcus pneumoniae (ATCC 6301) ([3]; Streptococcus pneumoniae (ATCC 6301)): <0.12 µg/mL
- MIC Streptococcus pneumoniae (GC 1894) ([3]; Streptococcus pneumoniae (GC 1894)): <0.12 µg/mL
- MIC Streptococcus pneumoniae (GC 4565) ([3]; Streptococcus pneumoniae (GC 4565)): <0.12 µg/mL
- MIC Streptococcus pyogenes (GC 4563) ([3]; Streptococcus pyogenes (GC 4563)): <0.12 µg/mL
- MIC Streptococcus pneumoniae (ATCC 6301) ([3]; strain ATCC 6301): <0.12 µg/mL
- MIC Streptococcus pneumoniae (GC 1894) ([3]; strain GC 1894): <0.12 µg/mL
- MIC Streptococcus pyogenes (GC 4563) ([3]; strain GC 4563): <0.12 µg/mL
- MIC Streptococcus agalactiae (GC 4564) ([3]; strain GC 4564): <0.12 to 0.25 µg/mL
- MIC Streptococcus pneumoniae (GC 4565) ([3]; strain GC 4565): <0.12 µg/mL
- MIC Coagulase Negative Staphylococcus (GC 4547) [4]: 1 µg/mL (≈ 0.723 µM)
- MIC Coagulase Negative Staphylococcus (GC 4548) [4]: 0.5 to 1 µg/mL
- MIC Coagulase Negative Staphylococcus (GC 4549) [4]: 0.5 µg/mL (≈ 0.361 µM)
- MIC Coagulase Negative Staphylococcus (GC 4551) [4]: 1 µg/mL (≈ 0.723 µM)
- MIC Coagulase Negative Staphylococcus (GC 6257) [4]: 0.5 µg/mL (≈ 0.361 µM)
- MIC Staphylococcus aureus (ATCC 29213) [4]: 1 µg/mL (≈ 0.723 µM)
- MIC Staphylococcus aureus (GC 1131) [4]: 2 µg/mL (≈ 1.45 µM)
- MIC Staphylococcus aureus (GC 3051) [4]: 1 µg/mL (≈ 0.723 µM)
- MIC Staphylococcus aureus (GC 3053) [4]: 1 µg/mL (≈ 0.723 µM)
- MIC Staphylococcus aureus (GC 4541) [4]: 1 µg/mL (≈ 0.723 µM)
- MIC Staphylococcus aureus (GC 4542) [4]: 0.5 µg/mL (≈ 0.361 µM)
- MIC Staphylococcus aureus (GC 4544) [4]: 1 µg/mL (≈ 0.723 µM)
- MIC Staphylococcus aureus (GC 4545) [4]: 0.5 to 1 µg/mL
- MIC Staphylococcus aureus-SMITH (GC 4543) [4]: 0.5 to 1 µg/mL
- MIC Staphylococcus haemolyticus (GC 4546) [4]: 0.5 µg/mL (≈ 0.361 µM)
- MIC Staphylococcus haemolyticus (GC 4546) ([4]; strain GC 4546): 0.5 µg/mL (≈ 0.361 µM)
- MIC Coagulase Negative Staphylococcus (GC 4547) ([4]; strain GC 4547): 1 µg/mL (≈ 0.723 µM)
- MIC Coagulase Negative Staphylococcus (GC 4548) ([4]; strain GC 4548): 0.5 to 1 µg/mL
- MIC Coagulase Negative Staphylococcus (GC 4549) ([4]; strain GC 4549): 0.5 µg/mL (≈ 0.361 µM)
- MIC Coagulase Negative Staphylococcus (GC 4551) ([4]; strain GC 4551): 1 µg/mL (≈ 0.723 µM)
- MIC Coagulase Negative Staphylococcus (GC 6257) ([4]; strain GC 6257): 0.5 µg/mL (≈ 0.361 µM)
- MIC Staphylococcus aureus-SMITH (GC 4543) ([4]; strain SMITH GC 4543): 0.5 to 1 µg/mL
- MIC Staphylococcus aureus (ATCC 29213) ([4]; strain ATCC 29213): 1 µg/mL (≈ 0.723 µM)
- MIC Staphylococcus aureus (GC 1131) ([4]; strain GC 1131): 2 µg/mL (≈ 1.45 µM)
- MIC Staphylococcus aureus (GC 3051) ([4]; strain GC 3051): 1 µg/mL (≈ 0.723 µM)
- MIC Staphylococcus aureus (GC 3053) ([4]; strain GC 3053): 1 µg/mL (≈ 0.723 µM)
- MIC Staphylococcus aureus (GC 4541) ([4]; strain GC 4541): 1 µg/mL (≈ 0.723 µM)
- MIC Staphylococcus aureus (GC 4542) ([4]; strain GC 4542): 0.5 µg/mL (≈ 0.361 µM)
- MIC Staphylococcus aureus (GC 4544) ([4]; strain GC 4544): 1 µg/mL (≈ 0.723 µM)
- MIC Staphylococcus aureus (GC 4545) ([4]; strain GC 4545): 0.5 to 1 µg/mL
- MIC Enterococcus avium (GC 4558) ([5]; Enterococcus avium (GC 4558)): 2 to 4 µg/mL
- MIC Enterococcus faecalis (ATCC 29212) ([5]; Enterococcus faecalis (ATCC 29212)): 2 to 4 µg/mL
- MIC Enterococcus faecalis (GC 2242) ([5]; Enterococcus faecalis (GC 2242)): 2 µg/mL (≈ 1.45 µM)
- MIC Enterococcus faecalis (GC 2691) ([5]; Enterococcus faecalis (GC 2691)): 4 µg/mL (≈ 2.89 µM)
- MIC Enterococcus faecalis (GC 3059) ([5]; Enterococcus faecalis (GC 3059)): 4 µg/mL (≈ 2.89 µM)
- MIC Enterococcus faecalis (GC 4552) ([5]; Enterococcus faecalis (GC 4552)): 4 µg/mL (≈ 2.89 µM)
- MIC Enterococcus faecalis (GC 4553) ([5]; Enterococcus faecalis (GC 4553)): 4 µg/mL (≈ 2.89 µM)
- MIC Enterococcus faecalis (GC 4554) ([5]; Enterococcus faecalis (GC 4554)): 4 µg/mL (≈ 2.89 µM)
- MIC Enterococcus faecalis (GC 6189) ([5]; Enterococcus faecalis (GC 6189)): 2 µg/mL (≈ 1.45 µM)
- MIC Enterococcus faecium (GC 2243) ([5]; Enterococcus faecium (GC 2243)): 2 µg/mL (≈ 1.45 µM)
- MIC Enterococcus faecium (GC 4556) ([5]; Enterococcus faecium (GC 4556)): 2 to 4 µg/mL
- MIC Enterococcus faecium (GC 4557) ([5]; Enterococcus faecium (GC 4557)): 2 µg/mL (≈ 1.45 µM)
- MIC Enterococcus faecalis (ATCC 29212) ([5]; strain ATCC 29212): 2 to 4 µg/mL
- MIC Enterococcus faecalis (GC 2242) ([5]; strain GC 2242): 2 µg/mL (≈ 1.45 µM)
- MIC Enterococcus faecium (GC 2243) ([5]; strain GC 2243): 2 µg/mL (≈ 1.45 µM)
- MIC Enterococcus faecalis (GC 2691) ([5]; strain GC 2691): 4 µg/mL (≈ 2.89 µM)
- MIC Enterococcus faecalis (GC 3059) ([5]; strain GC 3059): 4 µg/mL (≈ 2.89 µM)
- MIC Enterococcus faecalis (GC 4552) ([5]; strain GC 4552): 4 µg/mL (≈ 2.89 µM)
- MIC Enterococcus faecalis (GC 4553) ([5]; strain GC 4553): 4 µg/mL (≈ 2.89 µM)
- MIC Enterococcus faecalis (GC 4554) ([5]; strain GC 4554): 4 µg/mL (≈ 2.89 µM)
- MIC Enterococcus faecium (GC 4556) ([5]; strain GC 4556): 2 to 4 µg/mL
- MIC Enterococcus faecium (GC 4557) ([5]; strain GC 4557): 2 µg/mL (≈ 1.45 µM)
- MIC Enterococcus avium (GC 4558) ([5]; strain GC 4558): 2 to 4 µg/mL
- MIC Enterococcus faecalis (GC 6189) ([5]; strain GC 6189): 2 µg/mL (≈ 1.45 µM)
- median effective dose (ED50), Staphylococcus aureus-SMITH (GC 4543) [6]: 0.19 mg/kg
- median effective dose (ED50), Streptococcus pneumoniae (GC 1894) [7]: 0.22 mg/kg
- Clinical Chemistry (Day 10) % of Control, AST [8]: +87%
- Clinical Chemistry (Day 10) % of Control, BUN [8]: +203%
- Clinical Chemistry (Day 10) % of Control, Creatinine [8]: +65%
